Remaining activity data for 31 compounds are collected here from publication PMC8286840, “Identifying SARS-CoV-2 antiviral compounds by screening for small molecule inhibitors of Nsp3 papain-like protease” (Biochemical Journal, 2021).

The target in experiment [1] is T1, SARS-CoV-2 PLpro (nsp3 1564–1878) (Severe acute respiratory syndrome coronavirus 2, UniProt P0DTD1). Kind of experiment: biochemical. The arrangement: FRET-quenched peptide (Pro3) cleavage by PLpro, 10 min pre-incubation, slope over 20 min, normalised to no-compound control. As to conditions: low concentration screen, read-out: % of control remaining.
Experiment [2] addresses T1, SARS-CoV-2 PLpro (nsp3 1564–1878). Kind of experiment: biochemical. Further details: FRET-quenched peptide (Pro3) cleavage by PLpro, 10 min pre-incubation, slope over 20 min, normalised to no-compound control. As to conditions: high concentration screen, read-out: % of control remaining.
Protocol: The plates were organized with columns 3–22 containing the compounds; the remaining columns were used for reaction controls including substrate only and substrate with enzyme but no compound (Figure 3Aii). The PLpro enzyme was pre-incubated with the compounds for 10 min, and then the reaction was initiated by the addition of substrate. […] We incubated the inhibitors with PLpro before the enzymatic reaction so that the slow-binding inhibitors will not be missed out [21]. […] Fluorescence was read on a Spark multimode microplate reader (Tecan) with an excitation wavelength at 330 nm and emission wavelength at 420 nm. […] An amount of 5 µl of the enzyme was pre-incubated with compounds for 10 min before the addition of 15 µl substrate. Fluorescence was monitored at 2 min for 20 min with 3 min intervals giving a total of seven readings.

Counter-ions that a name gives are not always drawn. Like-named read-outs stand apart in the source and are kept apart here.

Turning to `CN(C)CCOC(C)(c1ccccc1)c1ccccn1` (stereo not drawn) [Doxylamine succinate], the remaining activity at 1.25 µM in experiment [1] (Well no.=497) was found to be 102%. Further, the remaining activity at 3.75 µM in experiment [2] (Well no.=497) amounted to 104%.

For the compound `CN(C)C(=S)NN=C(c1ccccn1)c1ccccn1` [Dp44mT], in experiment [1] (Well no.=5584), the remaining activity at 1.25 µM is 99.1%. In experiment [2] (Well no.=5584), the remaining activity at 3.75 µM came to 101%.

Turning to `CCCCc1oc2ccc(NS(C)(=O)=O)cc2c1C(=O)c1ccc(OCCCN(CCCC)CCCC)cc1` [Dronedarone], in experiment [1] (Well no.=8285), the remaining activity at 1.25 µM was 100%. The remaining activity at 3.75 µM in experiment [2] (Well no.=8285) turned out to be 94.4%.

With `O=C(CCCN1CC=C(n2c(=O)[nH]c3ccccc32)CC1)c1ccc(F)cc1` [Droperidol], the remaining activity at 1.25 µM turned out to be 105% in experiment [1] (Well no.=493) and 97.2% in experiment [1] (Well no.=7382). Besides, the remaining activity at 3.75 µM was determined as 106% in experiment [2] (Well no.=493) and 101% in experiment [2] (Well no.=7382).

`C[C@]12CCC(=O)C=C1[C@@H]1C[C@@H]1[C@H]1[C@@H]3[C@@H]4C[C@@H]4[C@@]4(CCC(=O)O4)[C@@]3(C)CC[C@@H]12` [Drospirenone]: the remaining activity at 1.25 µM in experiment [1] (Well no.=5235) came out at 99.4%. In experiment [2] (Well no.=5235), the remaining activity at 3.75 µM was 102%.

As for `Cc1cc(Cl)ccc1OCCCC(=O)NO` [Droxinostat], in experiment [1] (Well no.=5239), the remaining activity at 1.25 µM worked out at 101%. For the same compound, the remaining activity at 3.75 µM in experiment [2] (Well no.=5239) came out at 96.2%.

Consider `CS(=O)(=O)c1ccc(-c2cc(Br)sc2-c2ccc(F)cc2)cc1` [DuP 697], for which the remaining activity at 1.25 µM in experiment [1] (Well no.=499) worked out at 105%. Besides, the remaining activity at 3.75 µM in experiment [2] (Well no.=499) is 107%.

On to `COc1c2c(nc3ccccc13)OC(C(C)(O)CO)C2` (stereo not drawn) [Dubinidine], for which the remaining activity at 1.25 µM in experiment [1] (Well no.=486) was 106%; in experiment [1] (Well no.=3115), 102%. For the same compound, the results for the remaining activity at 3.75 µM in experiment [2] (Well no.=486) and in experiment [2] (Well no.=3115) were 105% and 104%, respectively.

Consider `OC[C@@H](O)[C@H](O)[C@H](O)[C@@H](O)CO` [Dulcite], for which the remaining activity at 1.25 µM in experiment [1] (Well no.=6883) came to 99.2%. In experiment [2] (Well no.=6883), the remaining activity at 3.75 µM stood at 94.4%.

As to `C[C@]12C=CC(=O)N[C@@H]1CC[C@@H]1[C@@H]2CC[C@]2(C)[C@@H](C(=O)Nc3cc(C(F)(F)F)ccc3C(F)(F)F)CC[C@@H]12` [Dutasteride], in experiment [1] (Well no.=5107), the remaining activity at 1.25 µM is 106%. Moreover, in experiment [2] (Well no.=5107), the remaining activity at 3.75 µM stood at 107%.

For the compound `CCCCOc1ccc(C(=O)CCN2CCCCC2)cc1` [Dyclonine (hydrochloride)], in experiment [1] (Well no.=8318), the remaining activity at 1.25 µM was 95.9%. In experiment [2] (Well no.=8318), the remaining activity at 3.75 µM is 94.4%.

With `CCCCOc1ccc(C(=O)CCN2CCCCC2)cc1` [Dyclonine HCl], in experiment [1] (Well no.=5050), the remaining activity at 1.25 µM amounted to 103%. In experiment [2] (Well no.=5050), the remaining activity at 3.75 µM worked out at 101%.

On to `Cn1c(=O)c2c(ncn2CC(O)CO)n(C)c1=O` (stereo not drawn) [Dyphylline], for which the remaining activity at 1.25 µM in experiment [1] (Well no.=8092) was 93.8%. In addition, in experiment [2] (Well no.=8092), the remaining activity at 3.75 µM is 95.3%.

On to `COc1cc2c3cc1Oc1c(OC)c(OC)cc4c1[C@@H](Cc1ccc(OC(=O)c5ccc([N+](=O)[O-])cc5)c(c1)Oc1ccc(cc1)C[C@@H]3N(C)CC2)N(C)CC4` [E6 Berbamine], for which, in experiment [1] (Well no.=3237), the remaining activity at 1.25 µM is 97.5%. Moreover, in experiment [2] (Well no.=3237), the remaining activity at 3.75 µM was determined as 95%.

Consider `C[C@H](NC(=O)c1c(C(F)F)nn(C)c1Oc1cccc(C(F)(F)F)c1)c1ccc(C(=O)O)cc1` [E7046], for which, in experiment [1] (Well no.=8441), the remaining activity at 1.25 µM amounted to 94.7%. For the same compound, in experiment [2] (Well no.=8441), the remaining activity at 3.75 µM came to 94.6%.

For the compound `COc1cc2nccc(Oc3ccc(NC(=O)NC4CC4)c(Cl)c3)c2cc1C(N)=O` [E7080], the remaining activity at 1.25 µM in experiment [1] (Well no.=2981) was 98%. In addition, the remaining activity at 3.75 µM in experiment [2] (Well no.=2981) came out at 98.1%.

Take `NC(N)=NCCC[C@H](NC(=O)c1sccc1NS(=O)(=O)c1cccc2nsnc12)C(=O)O` [EG00229]: the remaining activity at 1.25 µM in experiment [1] (Well no.=8174) was found to be 101%. Also, the remaining activity at 3.75 µM in experiment [2] (Well no.=8174) was 96.8%.

As for `O=C(Nc1cccc(Nc2cc(Nc3cccc(C(F)(F)F)c3)ncn2)c1)C1CC1` [EGFR Inhibitor], the remaining activity at 1.25 µM in experiment [1] (Well no.=2403) amounted to 106%. For the same compound, the remaining activity at 3.75 µM in experiment [2] (Well no.=2403) is 103%.

Regarding `COc1cc2ncnc(Nc3ccc(OCc4ccccc4)cc3)c2cc1OC` [EGFR/ErbB-2 Inhibitor], the remaining activity at 1.25 µM in experiment [1] (Well no.=2373) amounted to 95.9%. In addition, the remaining activity at 3.75 µM in experiment [2] (Well no.=2373) is 97.2%.

Regarding `CC#CC(=O)Nc1cc2c(Nc3ccc(F)c(Cl)c3)ncnc2cn1` [EGFR/ErbB-2/ErbB-4 Inhibitor], the remaining activity at 1.25 µM in experiment [1] (Well no.=2405) came to 102%. Further, the remaining activity at 3.75 µM in experiment [2] (Well no.=2405) worked out at 105%.

As for `O=c1cc(CN2CCOCC2)occ1OCCCCCSc1ccnc2cc(C(F)(F)F)ccc12` [EHT 1864], in experiment [1] (Well no.=8435), the remaining activity at 1.25 µM is 93.5%. The remaining activity at 3.75 µM in experiment [2] (Well no.=8435) was found to be 90.8%.

For the compound `CCn1c2ccccc2c2cc(Nc3ccnc(NCCCN4CCOCC4)n3)ccc21` [EHop-016], the remaining activity at 1.25 µM in experiment [1] (Well no.=6234) amounted to 98.3%. The remaining activity at 3.75 µM in experiment [2] (Well no.=6234) came out at 97.9%.

Take `Cc1[nH]c2ccc(Cl)cc2c1C1=CCNCC1` [EMD386088]: the remaining activity at 1.25 µM in experiment [1] (Well no.=5430) was determined as 95.7%. The remaining activity at 3.75 µM in experiment [2] (Well no.=5430) is 97.4%.

As to `Cc1cc(Nc2cc(N3CCN(C)CC3)nc(/C=C/c3ccccc3)n2)n[nH]1` [ENMD-2076 L-(+)-Tartaric acid], in experiment [1] (Well no.=5012), the remaining activity at 1.25 µM came to 101%. In addition, in experiment [2] (Well no.=5012), the remaining activity at 3.75 µM is 89.1%.

`Cc1cc(Nc2cc(N3CCN(C)CC3)nc(/C=C/c3ccccc3)n2)n[nH]1` [ENMD-2076]: in experiment [1] (Well no.=5093), the remaining activity at 1.25 µM is 102%. In experiment [2] (Well no.=5093), the remaining activity at 3.75 µM turned out to be 105%.

On to `Cc1ccccc1C(=O)c1ccc(Nc2ccc(Br)cc2N)cc1Cl` [EO 1428 - (2-Methylphenyl)-[4-[(2-amino-4-bromophenyl)amino]-2-chlorophenyl]methanone], for which the remaining activity at 1.25 µM in experiment [1] (Well no.=2634) was 87.4%. Also, the remaining activity at 3.75 µM in experiment [2] (Well no.=2634) was 88.7%.

Turning to `CC(C)[C@H](NC(=O)OCc1ccccc1)C(=O)N[C@@H](CC(=O)O)C(=O)CF` [EP1013], in experiment [1] (Well no.=6886), the remaining activity at 1.25 µM amounted to 96.4%. For the same compound, the remaining activity at 3.75 µM in experiment [2] (Well no.=6886) was 96.6%.

Regarding `Cc1ccc2c(=O)c3ccccc3n(CCCN)c2c1C` [ER 27319 maleate - 10-(3-Aminopropyl)-3,4-dimethyl-9(10H)-acridinone maleate], the remaining activity at 1.25 µM in experiment [1] (Well no.=2536) was found to be 98.5%. In addition, the remaining activity at 3.75 µM in experiment [2] (Well no.=2536) was 99.3%.

As for `Nc1[nH]nc2nnc(-c3c(-c4ccccc4)nn4ccccc34)cc12` [ERK Inhibitor II, FR180204], the remaining activity at 1.25 µM in experiment [1] (Well no.=2454) came to 103%. Further, in experiment [2] (Well no.=2454), the remaining activity at 3.75 µM was determined as 103%.

Turning to `O=c1[nH][nH]c2nnc(-c3c(-c4ccccc4)nn4ccccc34)cc12` [ERK Inhibitor II, Negative control], in experiment [1] (Well no.=2456), the remaining activity at 1.25 µM worked out at 98.3%. Moreover, the remaining activity at 3.75 µM in experiment [2] (Well no.=2456) came out at 102%.

On to `N/C(=N\N=C\c1ccc(-c2cccc([N+](=O)[O-])c2)o1)N[N+](=O)[O-]` [ERK Inhibitor III], for which the remaining activity at 1.25 µM in experiment [1] (Well no.=2422) was 101%. The remaining activity at 3.75 µM in experiment [2] (Well no.=2422) came to 104%.
